Experimental findings from patent US11731976B2, “3-(ethoxydifluoromethyl)-6-(5-fluoro-6-(2,2,2-trifluoroethoxy)pyridin-3-yl)-[1,2,4]triazolo[4,3-a]pyridine as an ion channel modulator” (Praxis Precision Medicines, Inc., priority 2018, dated 2023) are described below.

SMILES strings stand for the structures.

Assay [1] has as its target T1, human NaV 1.2 (h NaV 1.2) (Homo sapiens, UniProt Q99250).
T1 construct: expressed in transfected cells; host or cells: HEK-293
Kind of assay: Modulation of late sodium current (INaL), PatchXpress electrophysiology, HEK-293 cells expressing hNaV1.2. It counts as cell-based. The note with it: HEK293, read-out: NaV 1.2 Assay Data: percent inhibition of INaL at hNaV1.2.

A further assay has as its target T2, human NaV1.6 (hNaV1.6) (Homo sapiens, UniProt Q9UQD0).
T2 construct: expressed in transfected cells; host or cells: HEK-293
The assay can be described thus: Modulation of late sodium current (INaL), PatchXpress electrophysiology, HEK-293 cells expressing hNaV1.6. It counts as cell-based. The note with it: HEK293, late current evoked by 300 nM ATX-II, read-out: NaV 1.6 Assay Data: percent inhibition of INaL at hNaV1.6. The procedure, abridged: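 PatchXpress automated patch clamp on HEK-293 cells expressing recombinant hNaV1.6; late current enhanced with 300 nM ATX-II. INaL evoked by 200 ms steps to 0 mV from about −120 mV at 0.1 Hz, measured as mean amplitude over the final 20 ms. Percent steady-state inhibition versus control current.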

The target in another assay is T3, hNaV1.6-R223G (Homo sapiens, UniProt Q9UQD0, R223G).
T3 construct: expressed in transfected cells; host or cells: HEK-293
The assay can be described thus: Voltage ramp activated sodium current (Ramp INa), PatchXpress, HEK-293. The settings on record: HEK293; percent inhibition of enhanced ramp current at 1 μM; +600 mv/sec ramp from −100 mV to +20 mV. It is filed as cell-based. How it is done: (§1) Functional characterization of exemplary compounds to modulate INa expressed by various human isoforms and disease-causing mutant voltage-gated sodium channels was accomplished using the PatchXpress high throughput electrophysiology platform (Molecular Devices, Sunnyvale, Calif.). HEK-293 cells expressing a recombinant, human NaV1.X sodium channel (either hNaV1.6-WT, hNaV1.6-R223G, hNaV1.6-N984K, hNaV1.6-N1768D, hNaV1.1-WT, hNaV1.2-WT, hNaV1.5-WT, hNaV1.7-WT, or hNaV1.8-WT) were grown in DMEM/high-glucose Dulbecco's modified, 10% FBS, 2 mM sodium pyruvate, 10 mM HEPES and 400 μg/mL G418. Cells were grown to 50%-80% confluency prior to harvesting. Trypsinized cells were washed, allowed to recover for 1 hour and then resuspended in extracellular recording solution at a concentration of 1×10^6 cells/ml. The onboard liquid handling facility of the PatchXpress was used for dispensing cells and applying test compounds. INa amplitude and stability were determined by analyzing the peak current amplitude.
(§2) The Nav1.6 mutant channels (hNaV1.6-R223G, hNaV1.6-N984K, hNaV1.6-N1768D) express an enhanced sodium current in response to a ramp voltage depolarization when compared to the wild-type hNaV1.6-WT. This enhanced, depolarizing ramp current is thought to contribute to enhanced neuronal excitability. The degree of block with exemplary compounds (e.g., as described herein) was measured using a +600 mv/sec voltage ramp from −100 mV to +20 mV. The ramp current was defined as the area of the current measured between −55 mV and +15 mV. Following steady state block with exemplary compounds (e.g., as described herein) at 1 μM, a Na^+ free solution containing an impermeant cation (e.g., Choline or NMDG) was added for determination of the baseline current level for offline subtraction. Percent inhibition of enhanced ramp current was calculated as (compound−baseline)/(control−baseline)*100, where control represents the ramp current recorded in the absence of compound. In this table, “A” indicates inhibition between less than 0% to 50% and “B” indicates inhibition of greater than 50% and N/A indicates the compound was not tested.

For a further assay, the target named is T4, hNaV1.6-N1768D (Homo sapiens, UniProt Q9UQD0, N1768D).
T4 construct: expressed in transfected cells; host or cells: HEK-293
The assay is described as above. It is filed as cell-based. The note with it: HEK293; percent inhibition of enhanced ramp current at 1 μM; +600 mv/sec ramp from −100 mV to +20 mV. How it is done: as §1, §2

The next assay concerns the target T5, hNaV1.6-N984K (Homo sapiens, UniProt Q9UQD0, N984K).
T5 construct: expressed in transfected cells; host or cells: HEK-293
The description is as above. It counts as cell-based. The note with it: HEK293; percent inhibition of enhanced ramp current at 1 μM; +600 mv/sec ramp from −100 mV to +20 mV. How it is done:
as §1, §2

A further assay addresses T6, hNaV1.2-WT (Homo sapiens, UniProt Q99250).
T6 construct: expressed in transfected cells; host or cells: HEK-293
Kind of assay: Voltage step activated sodium current (Peak INa), PatchXpress, HEK-293. It is filed as cell-based. The settings on record: percent inhibition measured at 1 μM; step to 0 mV from half-inactivation holding potential. How it is done: as §1
(§3) Peak INa was evoked by depolarizing steps to 0 mV for 20 ms from a holding potential which evoked half-inactivation (e.g., −60 mV) at a frequency of 0.1 Hz. The voltage of half-inactivation was determined for each cell using a 5 sec prepulse to membrane potentials between −120 mV and −20 mV followed immediately by a voltage step to a fully activating membrane voltage (e.g., 0 mV). Following steady state block with exemplary compounds (e.g., as described herein), the degree of inhibition was measured using the average of three consecutive voltage steps. Percent steady-state inhibition of INa was calculated as: [(INa_compound)/(INa_control)]*100, where INa_compound and INa_control represent INa recorded in the presence or absence of compound, respectively.
(§4) In this table, “A” indicates inhibition between less than 0% to 50% and “B” indicates inhibition of greater than 50% and N/A indicates the compound was not tested.

For a further assay, the target named is T7, hNaV1.7-WT (Homo sapiens, UniProt Q15858).
T7 construct: expressed in transfected cells; host or cells: HEK-293
The description is as above. It counts as cell-based. The settings on record: HEK293; percent inhibition measured at 1 μM; step to 0 mV from half-inactivation holding potential. How it is done: as §1, §3, §4

Another assay concerns the target T8, hNaV1.8-WT (Homo sapiens, UniProt Q9Y5Y9).
T8 construct: expressed in transfected cells; host or cells: HEK-293
Described as above. It is filed as cell-based. The note with it: HEK293; percent inhibition measured at 1 μM; step to 0 mV from half-inactivation holding potential. How it is done:
as §1, §3, §4

In the next assay the target is T9, hNaV1.1-WT (Homo sapiens, UniProt P35498).
T9 construct: expressed in transfected cells; host or cells: HEK-293
The assay is described as above. It counts as cell-based. The settings on record: percent inhibition measured at 1 μM; step to 0 mV from half-inactivation holding potential. How it is done: as §1, §3, §4

The target of another assay is T10, hNaV1.6-WT (Homo sapiens, UniProt Q9UQD0).
T10 construct: expressed in transfected cells; host or cells: HEK-293
Described as above. It is filed as cell-based. The settings on record: HEK293; percent inhibition measured at 1 μM; step to 0 mV from half-inactivation holding potential. How it is done: as §1, §3, §4

A further assay addresses T11, hNaV1.5-WT (Homo sapiens, UniProt Q14524).
T11 construct: expressed in transfected cells; host or cells: HEK-293
Described as above. It counts as cell-based. The note with it: HEK293; percent inhibition measured at 1 μM; step to 0 mV from half-inactivation holding potential. How it is done: as §1, §3, §4

Another assay relates to Male CD-1 mice. The assay can be described thus: Maximal Electroshock induced Seizure (MES) assay in mice. The settings on record: 35% HPCD, pre-treatment 30 min, recorded up to 60 seconds post stimulus. It counts as in vivo, mouse. How it is done:
Male CD-1 mice, weighing 25-35 g were assessed in the Maximal Electroshock induced Seizure (MES) assay. Briefly, mice were dosed with compound (n=12/group) according to the dosing parameters in Table 20 and the latency to induce tonic hind limb extension following transauricular electrical stimulation (50 Hz, 50 mA, 0.8 sec duration, pulse width of 10 ins) was recorded up to 60 seconds post stimulus.

T11 sequence (Q14524 whole entry): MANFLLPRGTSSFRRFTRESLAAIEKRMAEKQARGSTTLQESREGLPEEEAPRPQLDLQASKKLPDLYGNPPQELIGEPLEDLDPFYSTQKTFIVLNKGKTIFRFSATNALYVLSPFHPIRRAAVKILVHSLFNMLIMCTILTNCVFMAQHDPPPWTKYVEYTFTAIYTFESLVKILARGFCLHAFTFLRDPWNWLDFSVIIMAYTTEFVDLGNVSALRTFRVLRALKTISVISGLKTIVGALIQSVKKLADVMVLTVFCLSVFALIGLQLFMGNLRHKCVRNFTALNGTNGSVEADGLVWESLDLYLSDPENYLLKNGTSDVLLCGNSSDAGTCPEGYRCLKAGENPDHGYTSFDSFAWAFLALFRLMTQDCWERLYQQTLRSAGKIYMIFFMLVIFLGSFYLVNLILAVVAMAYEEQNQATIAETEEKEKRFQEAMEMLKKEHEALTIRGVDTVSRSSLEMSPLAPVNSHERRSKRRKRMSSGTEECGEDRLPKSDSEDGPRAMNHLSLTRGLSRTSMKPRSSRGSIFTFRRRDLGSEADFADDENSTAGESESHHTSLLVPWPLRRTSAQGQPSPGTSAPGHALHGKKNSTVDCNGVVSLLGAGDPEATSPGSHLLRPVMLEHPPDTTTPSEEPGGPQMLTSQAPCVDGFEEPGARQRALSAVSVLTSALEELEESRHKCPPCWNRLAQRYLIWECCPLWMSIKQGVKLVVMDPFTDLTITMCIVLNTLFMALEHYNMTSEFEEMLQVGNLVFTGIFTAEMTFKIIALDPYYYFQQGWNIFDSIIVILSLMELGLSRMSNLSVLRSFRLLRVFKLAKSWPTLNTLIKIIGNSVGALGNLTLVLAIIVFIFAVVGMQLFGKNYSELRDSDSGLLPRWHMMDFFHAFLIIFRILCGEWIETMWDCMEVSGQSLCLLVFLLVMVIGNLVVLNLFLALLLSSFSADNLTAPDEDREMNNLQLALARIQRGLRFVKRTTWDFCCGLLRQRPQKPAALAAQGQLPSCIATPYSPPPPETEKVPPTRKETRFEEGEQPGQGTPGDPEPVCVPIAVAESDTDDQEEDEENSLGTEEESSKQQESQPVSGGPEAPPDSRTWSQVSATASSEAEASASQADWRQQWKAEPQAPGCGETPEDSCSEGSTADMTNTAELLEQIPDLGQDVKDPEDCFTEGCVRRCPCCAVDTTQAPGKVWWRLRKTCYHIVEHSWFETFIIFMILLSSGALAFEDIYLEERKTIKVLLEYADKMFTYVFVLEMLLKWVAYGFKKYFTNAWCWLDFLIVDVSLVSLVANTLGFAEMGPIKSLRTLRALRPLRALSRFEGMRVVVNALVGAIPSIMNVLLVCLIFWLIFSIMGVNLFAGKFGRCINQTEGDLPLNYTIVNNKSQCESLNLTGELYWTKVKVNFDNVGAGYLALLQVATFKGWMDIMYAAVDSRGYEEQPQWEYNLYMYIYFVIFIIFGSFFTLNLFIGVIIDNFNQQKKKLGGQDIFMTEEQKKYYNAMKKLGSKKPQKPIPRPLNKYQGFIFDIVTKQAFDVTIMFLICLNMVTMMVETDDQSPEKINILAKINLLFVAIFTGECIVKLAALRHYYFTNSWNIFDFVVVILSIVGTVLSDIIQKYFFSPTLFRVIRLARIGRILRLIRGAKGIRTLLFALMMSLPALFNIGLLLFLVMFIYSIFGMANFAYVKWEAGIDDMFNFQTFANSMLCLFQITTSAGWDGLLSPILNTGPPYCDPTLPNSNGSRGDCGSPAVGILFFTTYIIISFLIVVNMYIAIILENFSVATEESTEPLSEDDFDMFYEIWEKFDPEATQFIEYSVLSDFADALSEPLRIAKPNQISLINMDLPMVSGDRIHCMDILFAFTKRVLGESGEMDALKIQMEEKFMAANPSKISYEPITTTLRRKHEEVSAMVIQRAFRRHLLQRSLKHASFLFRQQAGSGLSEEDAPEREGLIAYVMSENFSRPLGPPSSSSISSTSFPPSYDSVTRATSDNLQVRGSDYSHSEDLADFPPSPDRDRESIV
T7 sequence (Q15858 whole entry): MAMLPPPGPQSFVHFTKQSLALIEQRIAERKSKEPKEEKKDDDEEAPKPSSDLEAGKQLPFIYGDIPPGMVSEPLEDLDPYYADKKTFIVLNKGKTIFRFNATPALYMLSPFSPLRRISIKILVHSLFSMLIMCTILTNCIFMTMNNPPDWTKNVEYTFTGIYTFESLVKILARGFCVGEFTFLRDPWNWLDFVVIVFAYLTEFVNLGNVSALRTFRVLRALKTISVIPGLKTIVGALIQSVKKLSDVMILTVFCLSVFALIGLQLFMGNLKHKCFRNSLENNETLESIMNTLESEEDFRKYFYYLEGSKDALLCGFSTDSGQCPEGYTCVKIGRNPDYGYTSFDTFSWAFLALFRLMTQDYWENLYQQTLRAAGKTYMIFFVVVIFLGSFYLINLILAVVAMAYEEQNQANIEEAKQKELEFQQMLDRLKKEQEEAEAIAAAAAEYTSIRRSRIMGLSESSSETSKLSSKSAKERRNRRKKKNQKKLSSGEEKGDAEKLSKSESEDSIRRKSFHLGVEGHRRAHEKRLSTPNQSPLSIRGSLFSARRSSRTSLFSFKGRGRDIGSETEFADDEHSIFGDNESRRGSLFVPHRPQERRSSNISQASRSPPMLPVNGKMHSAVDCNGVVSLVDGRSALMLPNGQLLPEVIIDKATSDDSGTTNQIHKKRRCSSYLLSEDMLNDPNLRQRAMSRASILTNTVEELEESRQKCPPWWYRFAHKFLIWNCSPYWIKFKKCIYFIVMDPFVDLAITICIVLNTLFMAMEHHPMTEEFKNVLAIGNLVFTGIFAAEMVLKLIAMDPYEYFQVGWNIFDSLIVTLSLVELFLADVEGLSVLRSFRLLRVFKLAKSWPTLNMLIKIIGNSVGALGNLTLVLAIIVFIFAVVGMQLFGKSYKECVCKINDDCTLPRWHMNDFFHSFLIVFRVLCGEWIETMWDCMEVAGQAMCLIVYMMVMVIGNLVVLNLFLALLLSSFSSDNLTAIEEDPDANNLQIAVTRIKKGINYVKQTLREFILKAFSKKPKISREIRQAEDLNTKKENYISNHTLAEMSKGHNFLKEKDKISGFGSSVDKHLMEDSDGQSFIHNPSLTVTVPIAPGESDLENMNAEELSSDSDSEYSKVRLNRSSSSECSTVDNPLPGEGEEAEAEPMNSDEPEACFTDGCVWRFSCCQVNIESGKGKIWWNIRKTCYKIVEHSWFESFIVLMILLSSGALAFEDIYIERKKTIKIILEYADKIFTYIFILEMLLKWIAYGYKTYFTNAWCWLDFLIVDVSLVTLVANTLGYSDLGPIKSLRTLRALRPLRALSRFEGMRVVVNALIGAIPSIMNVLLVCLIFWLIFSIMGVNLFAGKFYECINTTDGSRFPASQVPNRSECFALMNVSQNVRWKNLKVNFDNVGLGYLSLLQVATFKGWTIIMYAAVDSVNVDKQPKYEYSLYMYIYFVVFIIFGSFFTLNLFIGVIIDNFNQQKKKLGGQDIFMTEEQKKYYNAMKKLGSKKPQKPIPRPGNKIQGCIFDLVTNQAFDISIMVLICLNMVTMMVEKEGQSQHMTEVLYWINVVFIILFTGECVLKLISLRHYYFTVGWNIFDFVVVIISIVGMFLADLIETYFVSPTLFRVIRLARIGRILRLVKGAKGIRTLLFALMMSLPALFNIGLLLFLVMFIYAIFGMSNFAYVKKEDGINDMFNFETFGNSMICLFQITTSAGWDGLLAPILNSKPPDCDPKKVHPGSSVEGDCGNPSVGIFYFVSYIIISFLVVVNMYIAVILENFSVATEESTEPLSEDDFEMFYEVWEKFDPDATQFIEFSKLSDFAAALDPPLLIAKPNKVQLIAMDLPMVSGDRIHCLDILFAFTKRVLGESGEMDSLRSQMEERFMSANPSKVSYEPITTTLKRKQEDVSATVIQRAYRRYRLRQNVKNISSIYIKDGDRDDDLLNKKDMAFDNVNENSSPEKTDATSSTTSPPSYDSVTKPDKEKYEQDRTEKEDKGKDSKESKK

Take `COC(F)(F)c1nnc2cnc(-c3cnc(OCC(F)(F)F)c(F)c3)cn12` [Compound 53, 3-[difluoro(methoxy)methyl]-6-[5-fluoro-6-(2,2,2-trifluoroethoxy)-3-pyridyl]-[1,2,4]triazolo[4,3-a]pyrazine]: the inhibition at 1 µM in assay [1] is > 70%; at human NaV1.6 (hNaV1.6) it was > 70%; at hNaV1.6-R223G it was < 50%; at hNaV1.6-N1768D it was > 50%; on hNaV1.6-N984K, < 50%; at hNaV1.7-WT, > 50%. Besides, the inhibition at 1 µM on hNaV1.8-WT, on hNaV1.6-WT and against hNaV1.5-WT was > 50% each time. In addition, the “hNav1.2 Peak INa” value on hNaV1.2-WT was “A (inhibition between less than 0% to 50%)”. Further, the “hNav1.1 Peak INa” value on hNaV1.1-WT is recorded as “B (inhibition of greater than 50%)”. The “Mean latency to tonic extension” value was 36.4 s in the assay on Male CD-1 mice (1 mg/kg PO), 60 s in the assay on Male CD-1 mice (3 mg/kg PO) and 60 s in the assay with Male CD-1 mice (10 mg/kg PO).

Take `COC(F)(F)c1nnc2cnc(-c3ccc(O[C@H](C)C(F)(F)F)nc3)cn12` [Compound 62, 3-[difluoro(methoxy)methyl]-6-[6-[(1R)-2,2,2-trifluoro-1-methyl-ethoxy]-3-pyridyl]-[1,2,4]triazolo[4,3-a]pyrazine]: the inhibition at 1 µM in assay [1] was > 70%; at human NaV1.6 (hNaV1.6), > 70%; at hNaV1.6-R223G, < 50%; at hNaV1.6-N1768D, > 50%; at hNaV1.6-N984K, > 50%; on hNaV1.7-WT it was > 50%. In addition, the inhibition at 1 µM at hNaV1.8-WT, against hNaV1.6-WT and against hNaV1.5-WT was > 50% each time. Further, at hNaV1.2-WT, the “hNav1.2 Peak INa” value is “B (inhibition of greater than 50%)”. In addition, the “hNav1.1 Peak INa” value on hNaV1.1-WT is “B (inhibition of greater than 50%)”. For the same molecule, the “Mean latency to tonic extension” value in the assay on Male CD-1 mice (1 mg/kg PO) is given as 17.6 s; in the assay with Male CD-1 mice (3 mg/kg PO) it was 46.1 s.
